Source: patent US8906925B2, “Pyrido[4,3-B]indoles containing rigid moieties” (Medivation Technologies, Inc., priority 2008, dated 2014)

How the values were obtained:
[1] = target: T1, human recombinant serotonin (5-Hydroxytryptamine) 5-HT2C receptor (Homo sapiens, UniProt P28335); experiment: Serotonin 5-HT2C radioligand binding ([3H]Mesulergine); details: compound at 0.1 μM; read-out: Inhibition of ligand binding, Serotonin 5-HT2C (percent inhibition of specific binding)
T1 construct: expressed in transfected cells; host or cells: Chinese hamster ovary (CHO-K1) cells
T1 sequence (P28335 33-458): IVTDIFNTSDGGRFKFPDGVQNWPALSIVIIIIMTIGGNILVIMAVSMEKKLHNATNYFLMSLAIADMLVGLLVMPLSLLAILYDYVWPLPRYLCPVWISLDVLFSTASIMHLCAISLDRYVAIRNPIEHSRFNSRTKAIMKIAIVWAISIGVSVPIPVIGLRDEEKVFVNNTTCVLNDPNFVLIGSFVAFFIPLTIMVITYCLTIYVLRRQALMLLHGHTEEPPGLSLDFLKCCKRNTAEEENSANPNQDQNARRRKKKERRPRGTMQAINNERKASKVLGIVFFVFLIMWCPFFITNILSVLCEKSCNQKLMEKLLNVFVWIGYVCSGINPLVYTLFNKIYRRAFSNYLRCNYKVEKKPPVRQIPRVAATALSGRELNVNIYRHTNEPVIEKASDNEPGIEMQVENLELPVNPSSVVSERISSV
Method: Compounds of the invention were incubated with 1 nM [^3H]Mesulergine for 60 min. at 25° C. Non-specific binding was estimated in the presence of 1 μM Mianserin. Receptor proteins were filtered and washed, the filters were then counted to determine [^3H]Mesulergine specifically bound. Compounds were screened at 1 μM or lower, using 1% DMSO as vehicle. Biochemical assay results are presented as the percent inhibition of specific binding in Table 10.

[2] = target: T2, human recombinant serotonin (5-Hydroxytryptamine) 5-HT2A receptor (Homo sapiens, UniProt P28223); experiment: Serotonin 5-HT2A radioligand binding ([3H]Ketanserin); details: read-out: Inhibition of ligand binding, Serotonin 5-HT2A (percent inhibition of specific binding), compound at 0.1 μM
T2 construct: expressed in transfected cells; host or cells: Chinese hamster ovary (CHO-K1) cells
T2 sequence (P28223 whole entry): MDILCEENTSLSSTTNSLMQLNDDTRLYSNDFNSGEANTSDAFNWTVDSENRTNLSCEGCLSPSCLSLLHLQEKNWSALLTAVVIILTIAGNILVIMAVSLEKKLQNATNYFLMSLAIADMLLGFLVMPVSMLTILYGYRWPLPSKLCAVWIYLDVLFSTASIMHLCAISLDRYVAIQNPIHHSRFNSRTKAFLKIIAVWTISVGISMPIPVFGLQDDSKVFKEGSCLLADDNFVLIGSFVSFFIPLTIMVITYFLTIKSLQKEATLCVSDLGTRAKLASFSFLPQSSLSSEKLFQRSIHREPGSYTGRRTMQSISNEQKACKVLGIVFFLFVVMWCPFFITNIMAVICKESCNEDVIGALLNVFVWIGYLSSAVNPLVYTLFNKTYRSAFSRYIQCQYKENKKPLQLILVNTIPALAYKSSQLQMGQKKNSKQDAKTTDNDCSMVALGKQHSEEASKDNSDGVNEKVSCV
Method: Compounds of the invention were incubated with 0.5 nM [^3H]Ketanserin for 60 min. at 25° C. Non-specific binding was estimated in the presence of 1 μM Mianserin. Receptor proteins were filtered and washed, the filters were then counted to determine [^3H]Ketanserin specifically bound.

[3] = target: human dopamine D2L receptor (Homo sapiens, UniProt P14416); experiment: Dopamine D2L radioligand binding ([3H]Spiperone); details: percent inhibition of specific binding; compound at 1 μM; read-out: Inhibition of ligand binding, Dopamine D2L
human dopamine D2L receptor, sequence (P14416 whole entry): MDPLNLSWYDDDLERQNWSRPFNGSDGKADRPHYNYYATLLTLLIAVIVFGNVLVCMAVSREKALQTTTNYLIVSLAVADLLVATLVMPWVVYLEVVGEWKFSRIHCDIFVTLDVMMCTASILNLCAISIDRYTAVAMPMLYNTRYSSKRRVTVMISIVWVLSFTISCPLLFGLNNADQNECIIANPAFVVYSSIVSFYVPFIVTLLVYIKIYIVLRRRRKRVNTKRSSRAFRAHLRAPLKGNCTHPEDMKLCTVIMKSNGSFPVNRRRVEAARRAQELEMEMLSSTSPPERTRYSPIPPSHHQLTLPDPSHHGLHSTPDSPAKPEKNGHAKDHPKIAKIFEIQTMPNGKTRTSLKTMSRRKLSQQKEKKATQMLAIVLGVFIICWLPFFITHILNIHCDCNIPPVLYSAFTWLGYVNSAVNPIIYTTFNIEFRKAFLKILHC
Source text: Non-specific binding was estimated in the presence of […] Haloperidol. Receptor proteins were filtered and washed, the filters were then counted to determine [^3H]Spiperone specifically bound. […] Biochemical assay results are presented as the percent inhibition of specific binding in Table 9.

[4] = target: T3, human recombinant serotonin (5-Hydroxytryptamine) 5-HT6 receptor (Homo sapiens, UniProt P50406); experiment: Serotonin 5-HT6 radioligand binding ([3H]LSD); details: compound at 0.1 μM; read-out: Inhibition of ligand binding, Serotonin 5-HT6 (percent inhibition of specific binding)
T3 construct: expressed in transfected cells; host or cells: human HeLa cells
T3 sequence (P50406 whole entry): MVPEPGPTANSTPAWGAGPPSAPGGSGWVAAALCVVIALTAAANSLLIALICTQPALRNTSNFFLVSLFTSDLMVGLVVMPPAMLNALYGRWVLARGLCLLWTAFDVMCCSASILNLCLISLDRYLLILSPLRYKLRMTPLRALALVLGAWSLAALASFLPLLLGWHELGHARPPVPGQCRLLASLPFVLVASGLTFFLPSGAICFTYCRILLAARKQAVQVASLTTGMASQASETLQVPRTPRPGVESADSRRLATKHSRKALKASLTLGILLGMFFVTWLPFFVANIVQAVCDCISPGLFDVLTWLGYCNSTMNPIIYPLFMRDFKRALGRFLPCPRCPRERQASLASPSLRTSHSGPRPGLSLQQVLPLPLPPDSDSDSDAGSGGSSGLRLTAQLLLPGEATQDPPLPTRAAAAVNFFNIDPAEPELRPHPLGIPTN
Method: Compounds of the invention were incubated with 1.5 nM [3H]Lysergic acid diethylamide (LSD) for 120 min. at 37° C. […] Receptor proteins were filtered and washed, the filters were then counted to determine [3H]LSD specifically bound. Compounds were screened at 1 μM or lower, using 1% DMSO as vehicle. Biochemical assay results are presented as the percent inhibition of specific binding in Table 10.

[5] = target: human recombinant serotonin (5-Hydroxytryptamine) 5-HT7 receptor (Homo sapiens, UniProt P34969); experiment: Serotonin 5-HT7 radioligand binding ([3H]LSD); details: compound at 0.1 μM; read-out: Inhibition of ligand binding, Serotonin 5-HT7 (percent inhibition of specific binding)
human recombinant serotonin (5-Hydroxytryptamine) 5-HT7 receptor, sequence (P34969 whole entry): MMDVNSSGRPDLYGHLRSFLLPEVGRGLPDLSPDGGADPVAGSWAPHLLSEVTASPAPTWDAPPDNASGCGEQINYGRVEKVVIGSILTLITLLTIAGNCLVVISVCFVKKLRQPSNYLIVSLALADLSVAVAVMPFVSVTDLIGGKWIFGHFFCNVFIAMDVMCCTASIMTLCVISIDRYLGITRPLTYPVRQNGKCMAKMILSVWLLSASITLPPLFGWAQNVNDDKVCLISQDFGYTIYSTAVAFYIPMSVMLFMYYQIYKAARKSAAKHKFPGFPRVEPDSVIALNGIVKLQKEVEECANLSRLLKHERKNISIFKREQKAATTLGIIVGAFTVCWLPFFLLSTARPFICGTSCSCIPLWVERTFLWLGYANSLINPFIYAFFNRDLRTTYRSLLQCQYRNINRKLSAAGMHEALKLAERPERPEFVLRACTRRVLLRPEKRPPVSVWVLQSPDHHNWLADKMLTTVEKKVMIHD
Source text: Receptor proteins were filtered and washed, the filters were then counted to determine [^3H]LSD specifically bound.

[6] = target: histamine receptor H1 (Homo sapiens, UniProt P35367); experiment: Histamine H1 radioligand binding ([3H]Pyrilamine); details: read-out: Histamine Binding (1 μM) H1, percent inhibition of specific binding, 1 μM
histamine receptor H1, sequence (P35367 whole entry): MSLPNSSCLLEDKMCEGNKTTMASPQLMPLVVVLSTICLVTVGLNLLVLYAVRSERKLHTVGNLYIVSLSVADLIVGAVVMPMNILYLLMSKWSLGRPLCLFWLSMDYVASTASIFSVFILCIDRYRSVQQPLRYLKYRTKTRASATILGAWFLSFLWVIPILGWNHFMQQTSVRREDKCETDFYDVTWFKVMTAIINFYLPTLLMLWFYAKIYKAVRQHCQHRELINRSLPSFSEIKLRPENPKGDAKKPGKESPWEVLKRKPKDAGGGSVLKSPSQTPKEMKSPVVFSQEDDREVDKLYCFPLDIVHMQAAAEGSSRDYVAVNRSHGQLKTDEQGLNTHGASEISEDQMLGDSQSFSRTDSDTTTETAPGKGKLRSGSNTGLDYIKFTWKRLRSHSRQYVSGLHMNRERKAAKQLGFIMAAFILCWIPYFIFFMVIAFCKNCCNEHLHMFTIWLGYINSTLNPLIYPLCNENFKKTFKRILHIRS
Procedure, shortened: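 Values are percent inhibition of specific [3H]pyrilamine (1.2 nM) binding with compounds at ≤1 μM (1% DMSO vehicle); 180 min incubation at 25 °C, pH 7.4 Tris buffer, on CHO-expressed human H1 receptor; 1 μM pyrilamine defined nonspecific binding, bound ligand counted after filtration.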

Row | SMILES | inhibition at 0.1 µM [1] [%] | inhibition at 0.1 µM [2] [%] | inhibition at 1 µM [3] [%] | inhibition at 0.1 µM [4] [%] | inhibition at 0.1 µM [5] [%] | inhibition at 1 µM [6] [%]
1 | C/C(=C\n1c2c(c3ccc(Cl)cc31)CN(C)CC2)c1ccc(C)nc1 [Compound 253, (E)-7-chloro-2-methyl-5-(2-(6-methylpyridin-3-yl)prop-1-enyl)-2,3,4,5-tetrahydro-1H-pyrido[4,3-b]indole] | 49 | 85 | 22 | 9 | 54 | 20
2 | CC(C)/C(=C/n1c2c(c3cc(Cl)ccc31)CN(C)CC2)c1ccncc1 [Compound 265, (Z)-8-chloro-2-methyl-5-(3-methyl-2-(pyridin-4-yl)but-1-enyl)-2,3,4,5-tetrahydro-1H-pyrido[4,3-b]indole] | 89 | 96 | 73 | 97 | 52 | 22
3 | C/C(=C\n1c2c(c3cc(Cl)ccc31)CN(C)C(C)C2)c1ccc(C)nc1 (stereo not drawn) [Compound 273, (E)-8-chloro-2,3-dimethyl-5-(2-(6-methylpyridin-3-yl)prop-1-enyl)-2,3,4,5-tetrahydro-1H-pyrido[4,3-b]indole] | 100 | 94 | 12 | 46 | 85 | 41
4 | C/C(=C\n1c2c(c3cc(C)ccc31)CN(C)CC2)c1ccccn1 [Compound 278, (E)-2,8-dimethyl-5-(2-(pyridin-2-yl)prop-1-enyl)-2,3,4,5-tetrahydro-1H-pyrido[4,3-b]indole] | 91 | 88 | 51 | 69 | 79 | 24
5 | CN1CCc2c(c3cc(Cl)ccc3n2CC(C)(O)c2ccncn2)C1 (stereo not drawn) [Compound 198, 1-(8-chloro-2-methyl-3,4-dihydro-1H-pyrido[4,3-b]indol-5(2H)-yl)-2-(pyrimidin-4-yl)propan-2-ol] | -1 | 23 | 5 | 11 | 4 | 64
6 | COc1ccc([C@](C)(O)Cn2c3c(c4cc(C)ccc42)CN(C)CC3)cc1 [Compound 191, 1-(2,8-dimethyl-3,4-dihydro-1H-pyrido[4,3-b]indol-5(2H)-yl)-2-(4-methoxyphenyl)propan-2-ol] | 94 | 98 | 15 | 45 | 69 | 23
7 | C/C(=C\n1c2c(c3cc(C)ccc31)CN(C)C(C)C2)c1ccc(F)cc1 (stereo not drawn) [Compound 258, (E)-5-(2-(4-fluorophenyl)prop-1-enyl)-2,3,8-trimethyl-2,3,4,5-tetrahydro-1H-pyrido[4,3-b]indole] | 98 | 98 | 81 | 81 | 84 | 59
8 | Cc1ccc2c(c1)c1c(n2CC(C)(O)c2ccncn2)CCN(C)C1 (stereo not drawn) [Compound 197, 1-(2,8-dimethyl-3,4-dihydro-1H-pyrido[4,3-b]indol-5(2H)-yl)-2-(pyrimidin-4-yl)propan-2-ol] | 16 | 17 | 14 | 4 | 10 | 61
9 | C/C(=C\n1c2c(c3cccc(Cl)c31)CN(C)CC2)c1ccc(C)nc1 [Compound 252, (E)-6-chloro-2-methyl-5-(2-(6-methylpyridin-3-yl)prop-1-enyl)-2,3,4,5-tetrahydro-1H-pyrido[4,3-b]indole] | 50 | 67 | 13 | 9 | 23 | 22
10 | C/C(=C\n1c2c(c3cc(Cl)ccc31)CN(C)C(C)C2)c1ccc(F)cc1 (stereo not drawn) [Compound 262, (E)-8-chloro-5-(2-(4-fluorophenyl)prop-1-enyl)-2,3-dimethyl-2,3,4,5-tetrahydro-1H-pyrido[4,3-b]indole] | 100 | 99 | 97 | 99 | 94 | 66
11 | C/C(=C\n1c2c(c3cc(F)ccc31)CN(C)CC2)c1ccc(C)nc1 [Compound 251, (E)-8-fluoro-2-methyl-5-(2-(6-methylpyridin-3-yl)prop-1-enyl)-2,3,4,5-tetrahydro-1H-pyrido[4,3-b]indole] | 77 | 85 | 25 | 8 | 74 | 15
12 | C/C(=C\n1c2c(c3cc(C)ccc31)CN(C)CC2)c1ccncn1 [Compound 279, (E)-2,8-dimethyl-5-(2-(pyrimidin-4-yl)prop-1-enyl)-2,3,4,5-tetrahydro-1H-pyrido[4,3-b]indole] | 70 | 75 | 69 | 90 | 53 | 21
13 | C/C(=C\n1c2c(c3cccc(F)c31)CN(C)CC2)c1ccc(C)nc1 [Compound 260, (E)-6-fluoro-2-methyl-5-(2-(6-methylpyridin-3-yl)prop-1-enyl)-2,3,4,5-tetrahydro-1H-pyrido[4,3-b]indole] | 29 | 34 | 9 | -7 | 5 | -19
14 | Cc1ccc2c(c1)c1c(n2/C=C(/c2ccncc2)C(C)(C)C)CCN(C)C1 [Compound 280, (E)-5-(3,3-dimethyl-2-(pyridin-4-yl)but-1-enyl)-2,8-dimethyl-2,3,4,5-tetrahydro-1H-pyrido[4,3-b]indole] | 86 | 83 | 52 | 56 | 20 | 12
15 | C/C(=C\n1c2c(c3ccc(C(F)(F)F)cc31)CN(C)CC2)c1ccc(C)nc1 [Compound 250, (E)-2-methyl-5-(2-(6-methylpyridin-3-yl)prop-1-enyl)-7-(trifluoromethyl)-2,3,4,5-tetrahydro-1H-pyrido[4,3-b]indole] | 31 | 36 | 18 | 13 | 33 | 12
16 | COc1ccc([C@@](C)(O)Cn2c3c(c4cc(C)ccc42)CN(C)CC3)cc1 [Compound 192, 1-(2,8-dimethyl-3,4-dihydro-1H-pyrido[4,3-b]indol-5(2H)-yl)-2-(4-methoxyphenyl)propan-2-ol] | 81 | 91 | 34 | 38 | 78 | 61
17 | CN1CCc2c(c3cc(Cl)ccc3n2CC(C)(O)c2cnccn2)C1 (stereo not drawn) [Compound 199, 1-(8-chloro-2-methyl-3,4-dihydro-1H-pyrido[4,3-b]indol-5(2H)-yl)-2-(pyrazin-2-yl)propan-2-ol] | 33 | 40 | 16 | 25 | 30 | 61
